# Data published in patent US11413324B2, “Compositions and methods for treating peripheral nerve disease, disorders, and injuries” (University of Virginia Patent Foundation, priority 2017, dated 2022).
# “Also recorded” adds a separate entry of the source. Counter-ions that a name gives are not always drawn.
# Assays:
# peripheral olig2^+ cells = assay: Chemical screen of the LOPAC 1280 library: peripheral olig2+ cells scored in olig2:dsred larvae at 72 hpf; format: in vivo, zebrafish; settings: 4 μM, 24 to 72 hpf, pilot experiment, positive control
# peripheral olig2^+ OPCs = assay: Quantification of peripheral olig2+ OPCs at 3 dpf in drug-treated olig2:dsred larvae; format: in vivo, zebrafish; settings: for peripherally migrated OPCs at 3 dpf after neurotransmitter receptor antagonist: compared to control; for number of peripheral olig2+ OPCs: 24 to 72 hpf
# larvae = assay: Toxicity, death or morphological defects of treated or injected larvae; settings: 40 μM, 36 to 72 hpf, n=1 survivor
# MEP glia = assay: Presence of MEP glia (sox10+/olig2+ cells, wif1 in situ hybridization) on motor nerves; format: in vivo, zebrafish; settings: for percentage of motor nerves with sox10+/olig2+ MEP glia at the MEP TZ: 36 to 72 hpf, vs DMSO, p=0.14
# Experimental: Larvae were fixed in 4% PFA at 4° C. overnight and stored in 100% methanol at −20° C. and processed for in situ RNA hybridization. Plasmids were linearized with appropriate restriction enzymes and cRNA preparation was carried out using Roche DIG-labeling reagents and RNA polymerases (NEB). We used a previously published probe for wif1 (Smith et al., 2014). After in situ hybridization, embryos were embedded in 1.5% agarose/30% sucrose and frozen in 2-methylbutane chilled by immersion in liquid nitrogen. We collected 20 μm transverse sections on microscope slides using a cryostat microtome and covered with 75% glycerol. Images were obtained using a Zeiss AxioObserver inverted microscope using a 40× oil immersion objective. All images were imported into Adobe Photoshop. Adjustments were limited to levels, contrast, and cropping.
# We therefore sought to determine whether antagonizing the A2a AR lead to ectopic OPC migration simply by perturbing MEP glial development. MEP glia can be identified by the co-expression of sox10:eos and olig2:dsred as well as expression of wnt inhibitory factor 1 (wif1) (Smith et al., 2014).
# Eos^+ cells = assay: Number of Eos+ cells (Schwann cells and MEP glia) per motor nerve in sox10:eos larvae; format: in vivo, zebrafish; settings: 36 to 72 hpf, 72 hpf sox10:eos larvae, p=0.08
# [1] = tested on: peripheral OPCs myelinating spinal motor axons; assay: gpr126 mutant peripheral neuropathy model: peripheral OPCs and myelination of spinal motor nerves; format: in vivo, zebrafish
# Source text: This led us to hypothesize that OPCs could be pharmacologically recruited onto peripheral nerves in order to myelinate them. […] However, in these studies, OPCs populated the nerve in the context of genetic mutations resulting in the death or absence of both SCs and MEP glia. Therefore, we wanted to determine if it was possible to recruit OPCs to myelinate peripheral motor nerves in a model more closely resembling human peripheral neuropathies, in which SCs are present, but fail to myelinate. To do this, we used zebrafish harboring a mutation in g protein coupled receptor 126 (gpr126), a model of peripheral neuropathy in which SCs ensheath, but fail to myelinate peripheral nerves (Monk et al., 2009). OLs are present in normal numbers in these mutants, and central myelination is completely normal (Monk et al., 2009).
# Therefore, we tested whether treatment with the A2a AR antagonist would result in peripherally-migrated OPCs ensheathing peripheral spinal motor nerves in these mutants. […] We then performed in vivo, time-lapse imaging on nkx2.2a:megfp;olig2:dsred;gpr126^−/− mutants in order to visualize whether these peripheral OPCs initiated myelination of peripheral nerves. The transgene nkx2.2a:megfp is expressed by pre-myelinating OPCs and enables clear visualization of membrane structures (Kucenas et al., 2008a). No other cells in the spinal cord or at the MEP TZ express both nkx2.2a and olig2, so use of these transgenes allowed us to unambiguously identify membrane sheaths coming from OPCs. […] Thin OPC membrane processes extended toward peripheral motor axons and formed membrane sheaths around them (FIG. 6D). The timing of sheath initiation on peripheral axons coincided with sheath initiation within the spinal cord, and some peripheral sheaths stabilized and elongated during the course of the time-lapse (FIG. 6D). This time-lapse data rules out the possibility that SCH-58261 treatment stimulates SCs to myelinate the nerve, since nkx2.2a^+ OPC processes can be clearly seen ensheathing nerve segments.
# To examine whether these membrane sheaths were in fact myelin, we treated gpr126 mutants from 36 to 72 hpf with SCH-58261 or DMSO, fixed larvae at 4 dpf, and labeled with an antibody specific to myelin basic protein (MBP) using immunohistochemistry (Kucenas et al., 2009). In mutants treated with DMSO, we observed MBP only on a short segment of the proximal nerve root (FIG. 6E), which is consistent with our previous data showing that differentiated MEP glia express MBP in this region (Smith et al., 2014). […] As further confirmation that peripheral OPCs myelinate spinal motor nerve roots following treatment with SCH-58261, we imaged gpr126^−/− larvae expressing the transgenes mbp:egfp and olig2:dsred from 72 to 86 hpf (n=3) (FIG. 6F). In these time-lapses, we observed olig2^+ OPCs beginning to ensheath peripheral nerves with mbp^+ membrane tubes. Out of 12 nerves imaged, OPCs migrated out of the spinal cord onto 4 nerves, and an additional 3 nerves had OPCs already present at the beginning of the time-lapse. Multiple EGFP^+ membrane tubes extended from single OPCs and ensheathed most of the nerve root on all 7 nerves with OPCs present. These long membrane tubes were consistent with the pattern of MBP antibody labeling on the nerves of SCH-58261-treated mutants (FIG. 6E). Both the MBP antibody and mbp:egfp labeling were closely associated with an olig2^+ cell body, providing further evidence that peripherally-migrated OPCs and not SCs, initiate myelination in gpr126 mutants treated with SCH-58261 (FIGS. 6D&E). From these experiments, we conclude that OPCs can be recruited onto peripheral motor nerves and initiate myelination, even in the presence of MEP glia and SCs.
# [2] = tested on: OPC migration through the MEP TZ; settings: 10 μM, 24 to 72 hpf, 3 larvae imaged 55 to 72 hpf
# Experimental: Embryos were anesthetized with 0.01% 3-aminobenzoic acid ester (Tricaine), immersed in 0.8% low-melting point agarose and mounted laterally in glass-bottomed 35 mm petri dishes (Electron Microscopy Sciences). After mounting, the petri dish was filled with egg water containing PTU and Tricaine. For some experiments, chemical compounds were also dissolved in the water. A 25× multi-immersion objective (NA=0.8), 40× oil objective (NA=1.4) and a 40× water objective (NA=1.1) mounted on a motorized Zeiss AxioObserver ZI microscope equipped with a Quorum WaveFX-XI spinning disc confocal system (Quorum Technologies Inc.) were used to capture images. Image processing was performed with MetaMorph and Photoshop to enhance brightness and contrast of images. The Fiji plugin MTrackJ was used to annotate time-lapse movies (Meijering et al., 2012).
# In order to distinguish OPCs from motor neurons, we used embryos expressing olig2:dsred and sox10:eos, where sox10 regulatory elements drive expression of Eos in central and peripheral glia. […] We treated these embryos with 10 μM of CGS-15943 from 24 to 72 hpf and imaged 3 larvae (10 nerves total) from 55 to 72 hpf.
# perineurial glia (PG) = settings: 1.25 μm CGS-15943, 36 to 55 hpf
# [3] = dose responses of selective A1, A2b, A3 antagonists
# [4] = gpr126−/− mbp:egfp;olig2:dsred, imaged 72 to 86 hpf, 12 nerves imaged
structure (smiles),measurement,setting,value
COc1cc2ncnc(Nc3cccc(Cl)c3)c2cc1OC [AG1478],peripheral OPC migration,peripheral olig2^+ cells,robust peripheral OPC migration
"C[C@]12N[C@H](Cc3ccccc31)c1ccccc12 [MK-801, (5S,10R)-(+)-5-Methyl-10,11-dihydro-5H-dibenzo[a,d]cyclohepten-5,10-imine maleate]",peripherally migrated OPCs at 3 dpf after neurotransmitter receptor antagonist,"peripheral olig2^+ OPCs; 36 to 72 hpf, olig2:dsred",resulted in peripheral OPC migration
"Cn1c(=O)c2[nH]c(C3CCCC3)nc2n(C)c1=O [CPT, 8-cyclopentyltheophylline]",number of peripheral olig2+ OPCs,peripheral olig2^+ OPCs; [3],did not observe peripheral OPCs
CC1(C)[C@@H](OC(=O)CCC(=O)O)CC[C@]2(C)[C@H]3C(=O)C=C4[C@@H]5C[C@@](C)(C(=O)O)CC[C@]5(C)CC[C@@]4(C)[C@]3(C)CC[C@@H]12 [carbenoxolone],"peripherally-migrated OPCs, treatment alone versus combined with TeNT mRNA","peripheral olig2^+ OPCs; 10 μM, 36 to 72 hpf, counted at 72 hpf, p=0.04",more peripherally-migrated OPCs
same,peripherally-migrated OPCs at 3 dpf,"peripheral olig2^+ OPCs; 36 to 72 hpf, p<0.001 for 10 μM and p<0.0001 for 20 μM",significant numbers of peripherally-migrated OPCs
same,larvae that died at this dose,larvae,9
"Nc1nc2c(cnn2CCc2ccccc2)c2nc(-c3ccco3)nn12 [SCH-58261, 7-(2-phenylethyl)-5-amino-2-(2-furyl)-pyrazolo-[4,3-e]-1,2,4-triazolo[1,5-c]pyrimidine]",number of peripheral olig2+ OPCs,"peripheral olig2^+ OPCs; 10 μM, p<0.01 compared to DMSO",significant numbers of peripheral olig2^+ OPCs
same,peripheral OPC migration by treatment window,"peripheral olig2^+ OPCs; 10 μM, exposure beginning later than 54 hpf or ending earlier than 54 hpf, counted at 3 dpf",did not result in any peripheral OPC migration
same,peripheral OPCs in WT or adora2aa−/− mutants,"peripheral olig2^+ OPCs; SCH-58261 36 to 72 hpf, olig2:dsred, treatment p<0.0001, genotype p=0.53",observed peripheral OPCs in both genotypes
same,percentage of motor nerves with sox10+/olig2+ MEP glia at the MEP TZ,MEP glia; 10 μM,no differences
same,number of Eos+ cells per nerve compared with DMSO,Eos^+ cells,not significantly different
same,olig2+ OPCs in the periphery of gpr126 mutants,"[1]; 10 μM, 36 to 72 hpf, vs DMSO, p=0.009",significant number of olig2^+ OPCs in the periphery
same,MBP antibody labeling on peripheral nerves,"[1]; gpr126 mutants treated 36 to 72 hpf, fixed at 4 dpf",MBP labeling was present further distally along the nerve
same,nerves with OPCs on which EGFP+ membrane tubes ensheathed most of the nerve root,"[1]; gpr126−/− mbp:egfp;olig2:dsred, imaged 72 to 86 hpf",7 nerves
same,additional nerves with OPCs already present at the beginning of the time-lapse,[1]; [4],3 nerves
same,nerves onto which OPCs migrated out of the spinal cord during time-lapse,[1]; [4],4 nerves
same,ensheathment of peripheral motor axons by nkx2.2a+/olig2+ OPCs (time-lapse),"[1]; nkx2.2a:megfp;olig2:dsred;gpr126−/−, treated 36 to 72 hpf",initiate ensheathment of peripheral spinal motor axons
"NS(=O)(=O)c1cccc2c1c([N+](=O)[O-])cc1[nH]c(=O)c(=O)[nH]c12 [NBQX, 2,3-Dioxo-6-nitro-1,2,3,4-tetrahydrobenzo[f]quinoxaline-7-sulfonamide]",peripherally migrated OPCs at 3 dpf after neurotransmitter receptor antagonist,"peripheral olig2^+ OPCs; 36 to 72 hpf, olig2:dsred",significant numbers of peripherally-migrated OPCs
"Nc1nc2ccc(Cl)cc2c2nc(-c3ccco3)nn12 [CGS-15943, 9-Chloro-2-(2-furanyl)-[1,2,4]triazolo[1,5-c]quinazolin-5-amine]",OPCs migrating through a single MEP TZ,[2],≤ 2
same,nerves on which OPC cell bodies migrated onto peripheral spinal motor nerves during imaging,[2],6 out of 10
same,nerves on which OPCs extend membrane processes through the MEP TZ,[2],9 out of 10
same,nerves with OPCs already present before 60 hpf,[2],3 out of 10
same,nerves with olig2+/sox10− motor neurons in the periphery,[2],0 out of 10
same,number of peripheral olig2+ OPCs,"peripheral olig2^+ OPCs; doses of 1.25 and 20 μM, p<0.01",significant peripheral OPC migration
same,wif1+ MEP glia (in situ hybridization),MEP glia; 1.25 μM,observed wif1^+ MEP glia; also recorded: have wif1^+ MEP glia
same,percentage of motor nerves with sox10+/olig2+ MEP glia at the MEP TZ,MEP glia; 1.25 μM,no differences
same,PG extension from the spinal cord along the motor nerve (mean SEM),"perineurial glia (PG); 55 hpf larvae, 10 nerves per larva",24.94±1.75 μm
same,PG extension compared with DMSO-treated larvae,perineurial glia (PG); p=0.28,no difference in PG extension
CCCn1c(=O)c2[nH]c(-c3ccc(OCC(=O)Nc4ccc(C#N)cc4)cc3)nc2n(CCC)c1=O [MRS-1754],number of peripheral olig2+ OPCs,peripheral olig2^+ OPCs; [3],did not observe peripheral OPCs
CCOC(=O)C1=C(C)NC(c2ccccc2)=C(C(=O)OCc2ccccc2)C1C#Cc1ccccc1 (stereo not drawn) [MRS-1191],number of peripheral olig2+ OPCs,peripheral olig2^+ OPCs; [3],did not observe peripheral OPCs
